# From patent US7470711B2, “Piperidinyl substituted cyclohexane-1,4-diamines” (Janssen Pharmaceutica N.V., priority 2005, dated 2008)
# Structures can show the parent of a compound that is named as a salt. Where two headings read alike, the source gives them in different places.
# Key:
# α1b-AR = target: T1, α1b-AR (Homo sapiens, UniProt P35368); assay: α1-Adrenergic receptor radio-ligand binding assay, α1b subtype
# T1 construct: expressed in transfected cells; host or cells: COS-7 cells (membranes)
# T1 sequence (P35368 1-520): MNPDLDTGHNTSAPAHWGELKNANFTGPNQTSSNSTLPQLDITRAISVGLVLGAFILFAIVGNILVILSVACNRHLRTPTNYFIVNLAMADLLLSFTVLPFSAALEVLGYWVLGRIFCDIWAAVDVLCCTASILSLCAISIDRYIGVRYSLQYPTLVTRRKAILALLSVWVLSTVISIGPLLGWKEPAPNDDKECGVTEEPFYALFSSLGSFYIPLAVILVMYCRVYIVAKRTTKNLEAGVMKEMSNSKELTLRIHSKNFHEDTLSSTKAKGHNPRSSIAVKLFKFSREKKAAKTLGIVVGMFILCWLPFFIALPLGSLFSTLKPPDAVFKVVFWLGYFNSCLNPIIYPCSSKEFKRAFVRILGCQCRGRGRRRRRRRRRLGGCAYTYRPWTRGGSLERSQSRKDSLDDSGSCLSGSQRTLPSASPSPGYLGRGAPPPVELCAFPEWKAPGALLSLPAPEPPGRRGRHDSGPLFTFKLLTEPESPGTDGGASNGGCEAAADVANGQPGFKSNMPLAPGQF
# Experimental: (§1) Membranes were prepared from COS-7 cells (African Green monkey kidney SV40-transformed cells) that had been transfected with one of the three α1-AR subtypes (Genbank accession number for the α1a subtype: AF013261; Genbank accession number for the α1b subtype: NM000679; Genbank accession number for the α1d subtype: NM000678) using the following method: COS cells from ten 100 mm tissue culture plates were scraped into a 5 mL volume of TE (a mixture of 50 mM Tris-HCl, 5 mM EDTA, pH 7.4). […] The disrupted cells were centrifuged at 1000×g for 10 min at 4° C. Supernatants were centrifuged at 34,500×g for 20 min at 4° C. The membrane pellets were suspended in a 2 mL volume of TNE (a mixture of 50 mM Tris-HCl, 5 mM EDTA and 150 mM NaCl at pH 7.4). An aliquot of the membrane suspension was stored at −70° C. until use. The protein concentration was determined using the BioRad “DC” protein assay kit following membrane solubilization with Triton X-100.
# (§2) Triplicate determinations of radio-ligand binding in the presence of increasing concentrations of testing compound were made. The reagents were added to 96-well polypropylene plate wells. […] The plate was incubated at rt for 1 hr. The contents of the wells were filtered through a glass filter (type C) (GF/C) membrane Unifilter plate (Packard Instruments) using the Packard Filtermate cell harvester. The filter plates were dried in a vacuum oven for 30 min at 40° C. 25 μL Microscint 20 liquid scintillation fluid (Packard Instuments) was added to each well. The radioactive content was analyzed in the TopCount microplate scintillation counter (Packard Instruments).
# α1a-AR = target: T2, α1a-AR (Homo sapiens, UniProt P35348); assay: α1-Adrenergic receptor radio-ligand binding assay, α1a subtype
# T2 construct: expressed in transfected cells; host or cells: COS-7 cells (membranes)
# T2 sequence (P35348 1-455 isoform P35348-4): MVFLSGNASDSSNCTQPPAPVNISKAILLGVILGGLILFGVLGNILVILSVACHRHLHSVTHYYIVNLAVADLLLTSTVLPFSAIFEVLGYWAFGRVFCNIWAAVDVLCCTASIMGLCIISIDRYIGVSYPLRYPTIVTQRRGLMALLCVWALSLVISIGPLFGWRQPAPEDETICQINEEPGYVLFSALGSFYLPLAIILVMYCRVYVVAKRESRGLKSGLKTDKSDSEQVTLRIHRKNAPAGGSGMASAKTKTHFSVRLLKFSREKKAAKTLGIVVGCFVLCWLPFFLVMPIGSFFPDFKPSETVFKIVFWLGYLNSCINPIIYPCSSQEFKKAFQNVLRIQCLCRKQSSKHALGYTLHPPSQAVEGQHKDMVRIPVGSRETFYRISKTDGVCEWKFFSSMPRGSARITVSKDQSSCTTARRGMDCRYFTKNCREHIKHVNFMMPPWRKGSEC
# Experimental: as §1, §2
# α1d-AR = target: T3, α1d-AR (Homo sapiens, UniProt P25100); assay: α1-Adrenergic receptor radio-ligand binding assay, α1d subtype
# T3 construct: expressed in transfected cells; host or cells: COS-7 cells (membranes)
# T3 sequence (P25100 1-572): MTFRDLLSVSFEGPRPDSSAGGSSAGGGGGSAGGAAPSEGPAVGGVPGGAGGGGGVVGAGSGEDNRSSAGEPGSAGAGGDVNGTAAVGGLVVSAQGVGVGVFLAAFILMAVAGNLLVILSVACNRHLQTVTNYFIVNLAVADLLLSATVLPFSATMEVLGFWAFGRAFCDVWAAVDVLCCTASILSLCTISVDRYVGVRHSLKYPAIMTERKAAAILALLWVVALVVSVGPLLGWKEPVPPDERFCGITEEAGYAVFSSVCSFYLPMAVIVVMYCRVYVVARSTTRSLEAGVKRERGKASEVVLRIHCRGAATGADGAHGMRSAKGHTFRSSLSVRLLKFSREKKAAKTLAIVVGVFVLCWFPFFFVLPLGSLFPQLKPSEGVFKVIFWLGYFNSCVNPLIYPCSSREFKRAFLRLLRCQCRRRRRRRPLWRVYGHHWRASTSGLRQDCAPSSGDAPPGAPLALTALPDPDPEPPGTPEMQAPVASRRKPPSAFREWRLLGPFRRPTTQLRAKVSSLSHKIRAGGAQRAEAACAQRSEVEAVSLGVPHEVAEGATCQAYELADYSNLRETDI
# Experimental: as §1, §2
# [1] = 125I-HEAT, membranes of COS-7 cells transfected with α1b subtype, rt 1 hr, read-out: Receptor Binding, Ki α1b-AR
# [2] = 125I-HEAT, membranes of COS-7 cells transfected with α1a subtype, rt 1 hr, read-out: Receptor Binding, Ki α1a-AR
# [3] = 125I-HEAT, membranes of COS-7 cells transfected with α1d subtype, rt 1 hr, read-out: Receptor Binding, Ki α1d-AR
Structure (SMILES),melting point,Ki (α1b-AR; [1]),Ki (α1a-AR; [2]),Ki (α1d-AR; [3]),Ki (α1d-AR),Ki (α1b-AR),Ki (α1a-AR)
"COc1ccc(S(=O)(=O)N[C@H]2CC[C@@H](N3CCC(c4ccccc4OC(C)C)CC3)CC2)cc1OC (as salt: fumarate) [Cpd 1, N-cis-{4-[4-(2-isopropoxy-phenyl)-piperidin-1-yl]-cyclohexyl}-3,4-dimethoxy-benzenesulfonamide]",221 °C,,,,,,
"COc1ccc(S(=O)(=O)N[C@H]2CC[C@@H](N3CCC(c4ccccc4OCC(F)(F)F)CC3)CC2)cc1OC (as salt: fumarate) [Cpd 5, 3,4-dimethoxy-N-cis-(4-{4-[2-(2,2,2-trifluoro-ethoxy)-phenyl]-piperidin-1-yl}-cyclohexyl)-benzenesulfonamide]",201 °C (dec.),,,,,,
"CC(C)Oc1ccccc1C1CCN([C@H]2CC[C@@H](NS(=O)(=O)c3ccc(F)c(F)c3)CC2)CC1 [Cpd 3, 3,4-difluoro-N-cis-{4-[4-(2-isopropoxy-phenyl)-piperidin-1-yl]-cyclohexyl}-benzenesulfonamide]",176 °C,470 nM,3 nM,7.3 nM,,,
"CC(C)Oc1ccccc1C1CCN([C@H]2CC[C@H](NS(=O)(=O)c3ccc(F)c(F)c3)CC2)CC1 [Cpd 4, 3,4-difluoro-N-trans-{4-[4-(2-isopropoxy-phenyl)-piperidin-1-yl]-cyclohexyl}-benzenesulfonamide]",239 °C,,,,88.6 nM,,
"O=S(=O)(N[C@H]1CC[C@@H](N2CCC(c3ccccc3OCC(F)(F)F)CC2)CC1)c1ccc2c(c1)OCCO2 [Cpd 13, 2,3-dihydro-benzo[1,4]dioxine-6-sulfonic acid cis-(4-{4-[2-(2,2,2-trifluoro-ethoxy)-phenyl]-piperidin-1-yl}-cyclohexyl)-amide]",190 °C,,,,3 nM,92 nM,4 nM
"O=S(=O)(N[C@H]1CC[C@H](N2CCC(c3ccccc3OCC(F)(F)F)CC2)CC1)c1ccc2c(c1)OCCO2 [Cpd 14, 2,3-dihydro-benzo[1,4]dioxine-6-sulfonic acid trans-(4-{4-[2-(2,2,2-trifluoro-ethoxy)-phenyl]-piperidin-1-yl}-cyclohexyl)-amide]",146 °C,,,,26 nM,90.6 nM,2.2 nM
"COc1ccc(Cl)cc1S(=O)(=O)N[C@H]1CC[C@@H](N2CCC(c3ccccc3OCC(F)(F)F)CC2)CC1 [Cpd 17, 5-chloro-2-methoxy-N-cis-(4-{4-[2-(2,2,2-trifluoro-ethoxy)-phenyl]-piperidin-1-yl}-cyclohexyl)-benzenesulfonamide]",200 °C,216 nM,6.2 nM,,1.5 nM,,
"COc1ccc(Cl)cc1S(=O)(=O)N[C@H]1CC[C@H](N2CCC(c3ccccc3OCC(F)(F)F)CC2)CC1 [Cpd 18, 5-chloro-2-methoxy-N-trans-(4-{4-[2-(2,2,2-trifluoro-ethoxy)-phenyl]-piperidin-1-yl}-cyclohexyl)-benzenesulfonamide]",197 °C,703 nM,,35.9 nM,,,10.4 nM
"O=S(=O)(N[C@H]1CC[C@@H](N2CCC(c3ccccc3OCC(F)(F)F)CC2)CC1)c1cc(Cl)ccc1F [Cpd 19, 5-chloro-2-fluoro-N-cis-(4-{4-[2-(2,2,2-trifluoro-ethoxy)-phenyl]-piperidin-1-yl}-cyclohexyl)-benzenesulfonamide]",204 °C,181 nM,,0.97 nM,,,5.8 nM
"O=S(=O)(N[C@H]1CC[C@H](N2CCC(c3ccccc3OCC(F)(F)F)CC2)CC1)c1cc(Cl)ccc1F [Cpd 20, 5-chloro-2-fluoro-N-trans-(4-{4-[2-(2,2,2-trifluoro-ethoxy)-phenyl]-piperidin-1-yl}-cyclohexyl)-benzenesulfonamide]",227 °C,786 nM,,43.9 nM,,,4.7 nM
"O=S(=O)(N[C@H]1CC[C@@H](N2CCC(c3ccccc3OCC(F)(F)F)CC2)CC1)c1cccc(OC(F)F)c1 [Cpd 23, 3-difluoromethoxy-N-cis-(4-{4-[2-(2,2,2-trifluoro-ethoxy)-phenyl]-piperidin-1-yl}-cyclohexyl)-benzenesulfonamide]",105 °C,261 nM,7 nM,5.9 nM,,,
"O=S(=O)(N[C@H]1CC[C@H](N2CCC(c3ccccc3OCC(F)(F)F)CC2)CC1)c1cccc(OC(F)F)c1 [Cpd 24, 3-difluoromethoxy-N-trans-(4-{4-[2-(2,2,2-trifluoro-ethoxy)-phenyl]-piperidin-1-yl}-cyclohexyl)-benzenesulfonamide]",169 °C,355 nM,12 nM,70 nM,,,
"O=S(=O)(N[C@H]1CC[C@@H](N2CCC(c3ccccc3OCC(F)(F)F)CC2)CC1)c1ccc(OC(F)F)cc1 [Cpd 25, 4-difluoromethoxy-N-cis-(4-{4-[2-(2,2,2-trifluoro-ethoxy)-phenyl]-piperidin-1-yl}-cyclohexyl)-benzenesulfonamide]",196 °C,76 nM,5.4 nM,2.7 nM,,,
"O=S(=O)(N[C@H]1CC[C@H](N2CCC(c3ccccc3OCC(F)(F)F)CC2)CC1)c1ccc(OC(F)F)cc1 [Cpd 26, 4-difluoromethoxy-N-trans-(4-{4-[2-(2,2,2-trifluoro-ethoxy)-phenyl]-piperidin-1-yl}-cyclohexyl)-benzenesulfonamide]",155 °C,302 nM,,85.7 nM,,,37.5 nM
"COc1ccc(S(=O)(=O)N[C@H]2CC[C@@H](N3CCC(c4ccccc4OCCF)CC3)CC2)cc1OC [Cpd 27, N-cis-(4-{4-[2-(2-fluoro-ethoxy)-phenyl]-piperidin-1-yl}-cyclohexyl)-3,4-dimethoxy-benzenesulfonamide]",225 °C,354 nM,10.9 nM,8.8 nM,,,
"COc1ccc(S(=O)(=O)N[C@H]2CC[C@H](N3CCC(c4ccccc4OCCF)CC3)CC2)cc1OC [Cpd 28, N-trans-(4-{4-[2-(2-fluoro-ethoxy)-phenyl]-piperidin-1-yl}-cyclohexyl)-3,4-dimethoxy-benzenesulfonamide]",142 °C,4400 nM,68.8 nM,48.6 nM,,,
